#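 Interpolation was linear, between the two tested concentrations surrounding the appropriate level; five concentrations were tested over 48 hours in 96-well plates. TGI marks complete inhibition of growth.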
# Columns and labels:
# Test in all cases: NCI-60 cell line screen, 48 h
# SR leukemia = system: SR leukemia
# ACHN renal = system: ACHN renal
# HOP-18 NSCLC = system: HOP-18 NSCLC
# UO-31 renal = system: UO-31 renal
# NCI-H522 lung = system: NCI-H522 lung
# OVCAR-8 ovarian = system: OVCAR-8 ovarian
# SK-MEL-2 melanoma = system: SK-MEL-2 melanoma
# M14 melanoma = system: M14 melanoma
# NCI-H460 lung = system: NCI-H460 lung
# RPMI-8226 leukemia = system: RPMI-8226 leukemia
# IGROV1 ovarian = system: IGROV1 ovarian
# SNB-78 CNS = system: SNB-78 CNS
# UACC-257 melanoma = system: UACC-257 melanoma
# KM12 colon = system: KM12 colon
# SK-OV-3 ovarian = system: SK-OV-3 ovarian
# CCRF-CEM leukemia = system: CCRF-CEM leukemia
# LXFL 529 NSCLC = system: LXFL 529 NSCLC
# HT29 colon = system: HT29 colon
# SK-MEL-28 melanoma = system: SK-MEL-28 melanoma
# CAKI-1 renal = system: CAKI-1 renal
# HOP-92 NSCLC = system: HOP-92 NSCLC
# SF-268 CNS = system: SF-268 CNS
# EKVX NSCLC = system: EKVX NSCLC
# HCC-2998 colon = system: HCC-2998 colon
# SN12C renal = system: SN12C renal
# SW-620 colon = system: SW-620 colon
# UACC-62 melanoma = system: UACC-62 melanoma
# HL-60(TB) leukemia = system: HL-60(TB) leukemia
# A498 renal = system: A498 renal
# U251 CNS = system: U251 CNS
# NCI-H23 lung = system: NCI-H23 lung
# TK-10 renal = system: TK-10 renal
# M19-MEL melanoma = system: M19-MEL melanoma
# KM20L2 colon = system: KM20L2 colon
# SF-295 CNS = system: SF-295 CNS
# DMS 273 small cell lung = system: DMS 273 small cell lung
# DMS 114 small cell lung = system: DMS 114 small cell lung
# A549 NSCLC = system: A549 NSCLC
# HCT-116 colon = system: HCT-116 colon
# SNB-75 CNS = system: SNB-75 CNS
# HOP-62 NSCLC = system: HOP-62 NSCLC
# HCT-15 colon = system: HCT-15 colon
# XF 498 CNS = system: XF 498 CNS
# COLO 205 colon = system: COLO 205 colon
# OVCAR-4 ovarian = system: OVCAR-4 ovarian
# RXF 393 renal = system: RXF 393 renal
# MOLT-4 leukemia = system: MOLT-4 leukemia
# K-562 leukemia = system: K-562 leukemia
# OVCAR-5 ovarian = system: OVCAR-5 ovarian
# SK-MEL-5 melanoma = system: SK-MEL-5 melanoma
# NCI-H226 lung = system: NCI-H226 lung
# SNB-19 CNS = system: SNB-19 CNS
# SF-539 CNS = system: SF-539 CNS
# MALME-3M melanoma = system: MALME-3M melanoma
# 786-0 renal = system: 786-0 renal
smiles,measurement,setting,value
O=C1CC2(C[C@@H]3CCCCCCCCC[C@@H](C3)C2)N1 (stereo not given in full),TGI,SR leukemia,30.7 µM
same,TGI,ACHN renal,29.3 µM
same,TGI,HOP-18 NSCLC,22.6 µM
same,TGI,UO-31 renal,27.8 µM
same,TGI,NCI-H522 lung,33.1 µM
same,TGI,OVCAR-8 ovarian,33.5 µM
same,TGI,SK-MEL-2 melanoma,37.7 µM
same,TGI,M14 melanoma,28.8 µM
same,TGI,NCI-H460 lung,38.4 µM
same,TGI,RPMI-8226 leukemia,51.1 µM
same,TGI,IGROV1 ovarian,27.9 µM
same,TGI,SNB-78 CNS,49.6 µM
same,TGI,UACC-257 melanoma,25.1 µM
same,TGI,KM12 colon,34.6 µM
same,TGI,SK-OV-3 ovarian,28.4 µM
same,TGI,CCRF-CEM leukemia,37.6 µM
same,TGI,LXFL 529 NSCLC,29.7 µM
same,TGI,HT29 colon,26.9 µM
same,TGI,SK-MEL-28 melanoma,31.5 µM
same,TGI,CAKI-1 renal,25.4 µM
same,TGI,HOP-92 NSCLC,23 µM
same,TGI,SF-268 CNS,39.8 µM
same,TGI,EKVX NSCLC,28.2 µM
same,TGI,HCC-2998 colon,31.9 µM
same,TGI,SN12C renal,30.8 µM
same,TGI,SW-620 colon,33.8 µM
same,TGI,UACC-62 melanoma,30.3 µM
same,TGI,HL-60(TB) leukemia,38.8 µM
same,TGI,A498 renal,30.9 µM
same,TGI,U251 CNS,30.3 µM
same,TGI,NCI-H23 lung,31.3 µM
same,TGI,TK-10 renal,31.2 µM
same,TGI,M19-MEL melanoma,28.8 µM
same,TGI,KM20L2 colon,31.4 µM
same,TGI,SF-295 CNS,31.2 µM
same,TGI,DMS 273 small cell lung,25.3 µM
same,TGI,DMS 114 small cell lung,31.6 µM
same,TGI,A549 NSCLC,38.4 µM
same,TGI,HCT-116 colon,33.6 µM
same,TGI,SNB-75 CNS,20.6 µM
same,TGI,HOP-62 NSCLC,32.8 µM
same,TGI,HCT-15 colon,34 µM
same,TGI,XF 498 CNS,24.9 µM
same,TGI,COLO 205 colon,30.7 µM
same,TGI,OVCAR-4 ovarian,36.3 µM
same,TGI,RXF 393 renal,30.9 µM
same,TGI,MOLT-4 leukemia,37.4 µM
same,TGI,K-562 leukemia,55.1 µM
same,TGI,OVCAR-5 ovarian,29.6 µM
same,TGI,SK-MEL-5 melanoma,30.6 µM
same,TGI,NCI-H226 lung,30.8 µM
same,TGI,SNB-19 CNS,34.6 µM
same,TGI,SF-539 CNS,30.4 µM
same,TGI,MALME-3M melanoma,24.5 µM
same,TGI,786-0 renal,30.4 µM

# From PubChem BioAssay (NCI)
